The values below are quoted from earlier work in patent US9801890B2, “Medical methods utilising high purity diaminophenothiazinium compounds” (WisTa Laboratories Ltd., priority 2004, dated 2017).

In one series the test system is West Nile Virus. The conditions noted are these: laboratory tests.
A further series deals with HIV. The conditions noted are these: laboratory tests.
The test system of another series is viruses. The conditions noted are these: in vitro.

As for `CN(C)c1ccc2nc3ccc(N(C)C)cc3[s+]c2c1.[Cl-]` [MTC, 3,7-bis(dimethylamino) phenothiazin-5-ium chloride], the effectiveness against virus entry with West Nile Virus and in the series with HIV was “effective” throughout. Besides, the viricidal activity entry in the series with viruses is reported as “potent viricidal activity”.
